# Test results reported in doi:10.1101/2021.12.13.472376v1 (bioRxiv, 2021).
# Assays:
# [1] = tested on: GBM; conditions: GBM patients treated with radiotherapy combined with TMZ; ref Stupp et al., 2005; cited from earlier work
# [2] = Water solubility / dissolution of the peptide; type: physicochemical
water solubility [2],"dissolution of 1 mg peptide in 1000 μL 10% DMSO DPBS ([2]; 1 mg in 1000 μL 10% DMSO DPBS, only a mixture with loose precipitation obtained)",dissolution of 1 mg peptide in 200 μL normal saline or DPBS ([2]; 1 mg in 200 μL normal saline or DPBS),Compound,median survival [1] [months]
–,–,–,Cn1nnc2c(C(N)=O)ncn2c1=O [TMZ],14.6
poor,could not completely dissolve,–,RQIKIWFQNRRMKWGGTALDWSWLQTE [NBD],–
good,–,completely dissolve,YLGASVPSPDPLEPTGGTALDWSWLQTE [MTL-NBD],–
